Series [1] relates to α-SMA. In words: DSS intestinal fibrosis study: Western blot of colon, α-SMA. The series is classed as in vivo, mice. To be noted: whole colon, OD normalized with GAPDH, expressed as percentage of control groups; DSS 125.4 ± 19.45. On the procedure: (§1) For the Western blot analysis, 0.5 cm of frozen colonic samples were homogenized in RIPA Buffer containing 50 mM Tris HCl pH 7.6, 150 mM NaCl, 1.5 mM MgCl2, 5 mM EDTA, 1% Triton-X and 10% Glycerol, supplemented with 100 mM Sodium Fluoride (NaF), 2 mM Sodium Orthovanadate (Na3VO4), 10 mM Sodium Pyrophosphate (NaPPi), 1 mM phenylmethanesulphone (PMSF) and a classical protease-inhibitor cocktail containing 10 μg/mL Leupeptin and Aprotinin.
(§2) For each sample, 30 μg of protein was separated by PAGE and electroblotted. Nitrocellulose membranes (100% pure) were incubated (according with a specific protocol for each antibody) with primary antibodies directed against CTGF, Collagen-I and GAPDH (purchased from Abcam, Cambridge, UK; 1:1000 for 2 h at RT), diluted in 5% non-fat milk in 0.1% TBS-t. […] Optical density of target bands was determined using a computer-assisted densitometer and the ImageJ public domain software (W. S., Rasband, ImageJ, U. S. National Institutes of Health, Bethesda, MD; http://rsb.info.nih.gov/ij/, 1997-2011). Tissue levels were expressed as units of Optical Density (OD) per quantity of total proteins, normalized with internal control GAPDH and the results were expressed as percentage of control groups.
(In western blotting, separated proteins are transferred to a membrane and probed.)

Series [2] has as its system α-SMA. In words: Liver gene expression by quantitative Real Time PCR: α-SMA. To be noted: liver mRNA, normalized to β-actin; CCl4 group 65.51 ± 22.24. Type of series: in vivo, mice. On the procedure: The effect of administration of compound 34 (GED) and the specific CB2 agonist (JWH-133) was evaluated on the level of gene expression of cytokines (IL-1β, TNF-α) and genes involved in the mechanism of fibrosis by quantitative Real Time PCR.
Total RNA was isolated from livers using Rneasy kit (Macherey Nagel, Hoerdt, France) according to the manufacturer's instructions. RNA quantification was performed using spectrophotometry. After treatment at 37° C. for 30 min with 20-50 units of RNase-free DNase I (Roche Diagnostics Corporation, Indianapolis, IN, USA), oligo-dT primers (Roche Diagnostics Corporation, Indianapolis, USA) were used to synthesize single-stranded cDNA. mRNAs were quantified using SYBR green Master Mix (Applera, Courtaboeuf, France) with murine specific oligonucleotides (see Table 2) in a GeneAmp Abiprism 7000 (Applera, Courtaboeuf, France). In each assay, calibrated and no-template controls were included. Each sample was run in triplicate. SYBR green dye intensity was analyzed using the Abiprism 7000 SDS software (Applera, Courtaboeuf, France). All results were normalized to the unaffected housekeeping gene β-actin.
For orientation: In qPCR the cycle at which signal appears reflects the starting amount.

The next series relates to CTGF. In words: DSS chronic colitis (Ex. 7): Western blot, CTGF. The series is classed as in vivo, mice. To be noted: percentage of optical density vs control group, normalized with GAPDH; DSS 115.1%±16.88%. On the procedure:
(§3) 0.5 cm of frozen colonic samples were cut and mechanically homogenized in RIPA Buffer containing 50 mMTrisHCl pH 7.6, 150 mMNaCl, 1.5 mM MgCl2, 5 mM EDTA, 1% Triton-X and 10% Glycerol, supplemented with 100 mM Sodium Fluoride (NaF), 2 mM Sodium Orthovanadate (Na3VO4), 10 mM Sodium Pyrophosphate (NaPPi), 1 mMphenylmethanesulphone (PMSF) and a classical protease-inhibitor cocktail containing 10 μg/mL Leupeptin and Aprotinin.
(§4) 30 μg of protein for each sample were separated by PAGE and electroblotted. 100% pure Nitrocellulose membranes were incubated (according with a specific protocol for each antibody) with primary antibodies directed against TGF-β1, CTGF, α-SMA, Collagen-I and GAPDH (purchased from Abcam, Cambridge, UK; 1:1000 for 2 h at RT), and IL-13 (purchased from Antibodies online; 1:1000 for 2 h at RT) diluted in 5% non fat-milk in 0.1% TBS-t. […] Optical density of target bands was determined using a computer-assisted densitometer and the ImageJ public domain software (W. S., Rasband, ImageJ, U. S. National Institutes of Health, Bethesda, MD; http://rsb.info.nih.gov/ij/, 1997-2011). Tissue levels were expressed as units of Optical Density (OD) per quantity of total proteins, normalizing with internal control GAPDH and the results were expressed as percentage of control groups.

A further series has as its system Collagen I. Put plainly: DSS intestinal fibrosis study: Western blot of colon, Collagen I. The settings on record: whole colon, OD normalized with GAPDH, expressed as percentage of control groups; DSS 284.4 ± 63.86; listed as GED. Type of series: in vivo, mice. As for the experimental part:
as §1, §2

The next series relates to Collagen I-III. Put plainly: DSS chronic colitis (Ex. 7): Western blot, Collagen I-III. Type of series: in vivo, mice. The settings on record: percentage of the mean of control group, normalized with GAPDH; DSS 284.4%±63.8%. As for the experimental part:
as §3, §4

The test system of a further series is IL-13. Put plainly: DSS intestinal fibrosis study: Western blot of colon, IL-13. The series is classed as in vivo, mice. The settings on record: whole colon, OD normalized with GAPDH, expressed as percentage of control groups; DSS 189.5 ± 28.71; listed as GED. On the procedure:
as §1, §2

For series [3], the system named is liver biochemical parameters in the serum of mice (AST, ALT, Gamma GT, Alkaline phosphatase). Put plainly: Liver blood enzyme analysis in serum. To be noted: 4 days after the last administration of CCl4. The series is classed as in vivo. As for the experimental part:
The effect of oral administration of compound 34 (GED) and the specific CB2 agonist (JWH-133) was evaluated on different liver biochemical parameters in the serum of mice: hepatic enzymes ([…]), Gamma GT and the Alkaline phosphatase.

The test system of another series is C57bl6 mice. Put plainly: DSS intestinal fibrosis study: level of fibrosis by Picrosirius red staining. The settings on record: colon; DSS vehicle 2.27±0.12, control 1.12±0.07. The series is classed as in vivo. On the procedure:
Samples of colon obtained were promptly fixed with 10% buffered formalin in PBS (pH 7.4) for 3 h, dehydrated in graded ethanol and embedded in low-temperature-fusion paraffin. Formalin-fixed colonic tissue was processed and 5 μm thick paraffin sections were stained with Picrosirius red staining for histological analysis. Pictures were obtained with a ×20 objective. Each section was analyzed blindly by 3 different experimenters for the quantification of the degree of fibrosis using a score from 0 to 4.

The record followed here is US12291494B2, “Methods of treating fibrosis” (Nogra Pharma Limited, priority 2012, dated 2025).

Structures are written as SMILES. “Also recorded” adds a separate entry of the source.

`COC(Cc1ccc(N)cc1)C(=O)O` (racemic) [Compound 34, (±)-2-methoxy-3-(4′-aminophenyl) propionic acid]: in the series on α-SMA [1], the “α-SMA (Western blot)” value is 97.88 ± 15.66. The α-SMA in the series with α-SMA [2] was found to be 42.81 ± 14.81. For the same compound, in the series with CTGF, the “CTGF expression level (Western blot)” value is 55.57%±17.53%. The “Collagen I (Western blot)” value with Collagen I turned out to be 90.75±19.91. Besides, the “Collagen I-III expression level (Western blot)” value with Collagen I-III is 90.75%±19.9%. Besides, the “IL-13 (Western blot)” value in the series on IL-13 amounted to 88.88±14.01. The “enhancement of blood liver enzymes (AST, ALT, Alk P) / liver toxicity” value in series [3] was “not associated with any enhancement of blood liver enzymes; also recorded: without liver toxicity”. Also, in the series on C57bl6 mice, the “level of fibrosis, score from 0 to 4 (Picrosirius red)” value is given as 1.625±0.15.
